We go through 11 compounds from patent US10035790B2, “RORγ modulators” (BRISTOL-MYERS SQUIBB COMPANY, priority 2012, dated 2018).

Each structure is given as a SMILES string.

By IC50 is commonly meant the midpoint of a concentration-inhibition curve.

For this experiment, the target named is T1, ligand binding domain of human RORγ (A262-S507) (Homo sapiens, UniProt P51449).
T1 construct: made in house; host or cells: E. coli
T1 sequence (P51449 262-507): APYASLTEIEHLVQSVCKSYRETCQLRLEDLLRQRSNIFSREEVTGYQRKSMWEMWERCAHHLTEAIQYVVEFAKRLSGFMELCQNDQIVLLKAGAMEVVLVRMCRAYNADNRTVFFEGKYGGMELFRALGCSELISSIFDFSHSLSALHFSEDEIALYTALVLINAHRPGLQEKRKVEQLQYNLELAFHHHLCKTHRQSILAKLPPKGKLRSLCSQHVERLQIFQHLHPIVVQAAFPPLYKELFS
Nature of the experiment: General RORγ SPA binding assay (competition with [3H]25-hydroxycholesterol). Conditions: RORγ SPA binding assay, inhibition of [3H]25-hydroxycholesterol binding; read-out: IC50. Put shortly: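 Scintillation counts from copper His-tag SPA beads (4 mg/mL, 30 min) gave percent inhibition of radioligand binding, from which IC50 values are derived. The E. coli-expressed His-tagged domain (50 nM) is first exposed to compound for 15 min at room temperature in PBS containing 0.5% fatty acid free BSA.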
Regarding `Cc1ncc(C(C)(C)OCc2cccc(Cl)c2)c(C2CCN(C(=O)Cc3c(F)cccc3F)CC2)n1` [Compound E6, 1-(4-(5-(2-((3-chlorobenzyl)oxy)propan-2-yl)-2-methylpyrimidin-4-yl)piperidin-1-yl)-2-(2,6-difluorophenyl)ethanone], the IC50 was 45.7 nM.

`Cc1ncc(C(C)(C)OCc2cccc(Cl)n2)c(C2CCN(C(=O)Cc3c(F)cccc3F)CC2)n1` [Compound E7, 1-(4-(5-(2-((6-chloropyridin-2-yl)methoxy)propan-2-yl)-2-methylpyrimidin-4-yl)piperidin-1-yl)-2-(2,6-difluorophenyl)ethanone]: the concentration for half-maximal inhibition (IC50) is 63 nM.

For the compound `Cc1cc(C)cc(COCc2cnc(C)nc2C2CCN(C(=O)Cc3c(F)cccc3F)CC2)c1` [Compound E10, 2-(2,6-Difluorophenyl)-1-(4-(5-((3,5-dimethylbenzyloxy)methyl)-2-methylpyrimidin-4-yl)piperidin-1-yl)ethanone], the 50% inhibitory concentration (IC50) was 79 nM.

Turning to `Cc1cc(C)cc(COC(C)c2cnc(C)nc2C2CCN(C(=O)Cc3c(F)cccc3F)CC2)c1` (centres unmarked) [Compound E11, 2-(2,6-Difluorophenyl)-1-(4-(5-(1-(3,5-dimethylbenzyloxy)ethyl)-2-methylpyrimidin-4-yl)piperidin-1-yl)ethanone], the IC50 was 19.2 nM.

In the case of `Cc1ncc(C(C)(F)COc2cccc(C(F)(F)F)n2)c(C2CCN(C(=O)Nc3c(F)cccc3F)CC2)n1` (centres unmarked) [Compound E12, N-(2,6-Difluorophenyl)-4-[5-(1-fluoro-1-methyl-2-{[6-(trifluoromethyl)pyridin-2-yl]oxy}ethyl)-2-methylpyrimidin-4-yl]piperidine-1-carboxamide], the half-maximal inhibitory concentration (IC50) was determined as 11 nM.

In the case of `Cc1ncc(C(C)(F)COc2cccc(C(F)(F)F)n2)c(C2CCN(C(=O)Nc3c(F)cccc3C(F)(F)F)CC2)n1` (centres unmarked) [Compound E13, 4-[5-(1-Fluoro-1-methyl-2-{[6-(trifluoromethyl)pyridin-2-yl]oxy}ethyl)-2-methylpyrimidin-4-yl]-N-[2-fluoro-6-(trifluoromethyl)phenyl]piperidine-1-carboxamide], the IC50 turned out to be 13.2 nM.

Turning to `Cc1cc(C)cc(OCC(C)(F)c2cnc(C)nc2C2CCN(C(=O)Cc3c(F)cccc3F)CC2)c1` (centres unmarked) [Compound E14, 4-{1-[(2,6-Difluorophenyl)acetyl]piperidin-4-yl}-5-{2-[(3,5-dimethylphenyl)oxy]-1-fluoro-1-methylethyl}-2-methylpyrimidine], the IC50 came out at 28 nM.

For the compound `Cc1ncc(C(C)(F)CNc2ccnc(C(F)(F)F)n2)c(C2CCN(C(=O)Nc3c(F)cccc3F)CC2)n1` (centres unmarked) [Compound E15, N-(2,6-Difluorophenyl)-4-[5-(1-fluoro-1-methyl-2-{[2-(trifluoromethyl)pyrimidin-4-yl]amino}ethyl)-2-methylpyrimidin-4-yl]piperidine-1-carboxamide], the IC50 was determined as 56.5 nM.

For the compound `Cc1ncc(C(C)(C)CNc2ccnc(C(F)(F)F)n2)c(C2CCN(C(=O)Cc3c(F)cccc3F)CC2)n1` [Compound F1, 2-(2,6-Difluorophenyl)-1-(4-(2-methyl-5-(2-methyl-1-(2-(trifluoromethyl)pyrimidin-4-ylamino)propan-2-yl)pyrimidin-4-yl)piperidin-1-yl)ethanone], the concentration for half-maximal inhibition (IC50) was 76 nM.

Turning to `Cc1ncc(C(C)(C)CNc2nccc(C(F)(F)F)n2)c(C2CCN(C(=O)Cc3c(F)cccc3F)CC2)n1` [Compound F2, 2-(2,6-difluorophenyl)-1-(4-(2-methyl-5-(2-methyl-1-((4-(trifluoromethyl)pyrimidin-2-yl)amino)propan-2-yl)pyrimidin-4-yl)piperidin-1-yl)ethanone], the 50% inhibitory concentration (IC50) was found to be 26 nM.

For `Cc1ncc(C(C)(C)CNc2cccc(C(F)(F)F)n2)c(C2CCN(C(=O)Cc3c(F)cccc3F)CC2)n1` [Compound F3, N-[2-(4-{1-[(2,6-difluorophenyl)acetyl]piperidin-4-yl}-2-methylpyrimidin-5-yl)-2-methylpropyl]-6-(trifluoromethyl)pyridin-2-amine], the concentration for half-maximal inhibition (IC50) was 3.3 nM.
